Measurements published in PMC10350924, “Design, Synthesis, and Pharmacological Characterization of a Potent Soluble Epoxide Hydrolase Inhibitor for the Treatment of Acute Pancreatitis” (Journal of Medicinal Chemistry, 2023).

Test system: cerulein-induced acute pancreatitis
Assay: Cerulein-induced acute pancreatitis in mice
Format: in vivo
Description: Male CD-1 mice (33–39 g, 8 weeks, Charles River Laboratories; Calco, Italy) were fed with standard rodent chow and water and acclimated for 4 days at a 12 h light and 12 h dark schedule in a constant air-conditioned environment (21 ± 2 °C). The mice were randomly assigned to groups, and experiments were carried out during the light phase. Experimental procedures were conducted in conformity with Italian (D.L. 26/2014) and European (directive 2010/63/EU) regulations on the protection of animals used for scientific purposes and approved by the Italian Ministry. Acute pancreatitis (AP) was induced in mice by intraperitoneal (i.p.) injections of cerulein (50 μg/kg) hourly (5 times).[56] The groups were: (a) Sham group which received saline i.p. hourly (×5); […] The mice were killed 6 h after the first cerulein injection. Blood samples were obtained by direct intracardiac puncture. Pancreases and lungs were removed immediately, frozen, and stored at −80 °C until assayed. Portions of these organs were also fixed in formaldehyde for histological and immunohistochemical examination. Pancreas and lung sections (6 μm) were stained for hematoxylin & eosin (H&E). Evaluation of pancreas edema and inflammation signs were performed with a three-point scoring system. […] Analysis was performed in a blinded manner. Evaluation of lung edema and inflammatory infiltration was performed with three-point scoring system: 0, absent; 1, mild; 2, moderate; 3, severe. […] Tissue sections were then incubated with normal goat serum (Vector Laboratories, Newark, California) for 20 min to reduce nonspecific antibody interactions. Sections were incubated with primary antibody diluted in 0.01 M PBS, 2.5% normal serum (anti-Neutrophils rat monoclonal antibody, dilution 1:100, Abcam) for 30 min. After rinsing with PBS 0.01 M for 5 min, slides were incubated with biotinylated goat anti-rat IgG (Vector Laboratories, Newark, California), diluted 1:200, for 30 min. After rinsing with PBS 0.01 M for 5 min, slides were incubated with VECTASTAIN ABC Reagent (Vector Laboratories, Newark, California) for 30 min. Color development was performed using […] 3,3′-diaminobenzidine solution (Sigma-Aldrich, Milan, Italy), and sections were analyzed using Leica Microsystem with a magnification of 20x. Semiquantitative determination of protein expression was obtained with ImageJ/Fiji software. Liver injury was assessed by measuring the rise in plasma levels of alanine aminotransferase (ALT, a specific marker for hepatic parenchymal injury) and aspartate aminotransferase (AST, a nonspecific marker for hepatic injury) 6 h after cerulein injection by a clinical laboratory. Results are expressed in international units per milliliter.

[1] = 10 mg/kg i.p. 0.5 and 2.5 h after first cerulein injection, 6 h
[2] = 10 mg/kg i.p., 6 h after first cerulein injection

CC(C)c1ccc(Cn2ccc3cc(NC(=O)NCC45C[C@H]6C[C@@H](C4)C[C@@H](C5)C6)ccc32)cc1 [Compound 28, 1-(((3R,5R,7R)-Adamantan-1-yl)methyl)-3-(1-(4-isopropylbenzyl)-1H-indol-5-yl)urea]
lung inflammation and neutrophilia [1]: reduced | pancreatic injury (edema, cell infiltration, neutrophil numbers) [1]: protective effect | serum ALT levels [2]: decreased | serum AST levels [2]: decreased
